Measured values published in ChEMBL document CHEMBL1148050, “Sigmoidins J and K, two new prenylated isoflavonoids from Erythrina sigmoidea” (1994).
≈ marks a conversion by molar mass, not a printed value.

What was measured:
Type in all cases: functional
Staphylococcus aureus = assay: Antibacterial activity against Staphylococcus aureus
Cryptococcus neoformans = assay: Antifungal activity against Cryptococcus neoformans
Aspergillus fumigatus = assay: Antifungal activity against Aspergillus fumigatus

SMILES: CC(C)=CCc1cc(-c2coc3cc(O)ccc3c2=O)ccc1O [NEOBAVAISOFLAVONE]
- MIC (Staphylococcus aureus): 3.2 µg/mL (≈ 9.93 µM)
- MIC (Cryptococcus neoformans): 50 µg/mL (≈ 155 µM)
- MIC (Aspergillus fumigatus): 50 µg/mL (≈ 155 µM)
